According to article PMC11012799 (Molecules, 2024):
Values after ≈ are worked out from the molar mass of the structure shown. Structures can show the parent of a compound that is named as a salt. Where two headings read alike, the source gives them in different places.

Experiments:
[1] = system: Staphylococcus aureus ATCC 6538; assay: MIC, two-fold microdilution (EUCAST), S. aureus reference strain; assay type: cell-based; conditions: read-out: MIC (µM) Staphylococcus aureus ATCC 6538
Excerpt: (§1) A panel of reference bacteria, including Escherichia coli NCTC 8196, Staphylococcus aureus ATCC 6538, Klebsiella pneumoniae ATCC 13883, and Pseudomonas aeruginosa NCTC 6749, was used to assess the antibacterial activity of the nine tested aziridine phosphines (1–4) and aziridine phosphine oxides (5–9). The two-fold microdilution method, following EUCAST guidelines, was used to determine a minimal inhibitory concentration (MIC) of each compound, as presented in Table S1.
(§2) Antibacterial activity: The in vitro antibacterial activity of nine tested aziridine phosphines (1–4) and aziridine phosphine oxides (5–9) was evaluated against reference bacterial strains (E. coli NCTC 8196, S. aureus ATCC 6538, K. pneumoniae ATCC 13883, P. aeruginosa NCTC 6749) and 12 S. aureus clinical isolates, including two methicillin-resistant isolates (MRSA, D15 and D17) obtained from infected patients hospitalized at the Oncological Hospital in Lodz (Poland). All strains were kept frozen at −80 °C in Tryptic Soy Broth with 15% glycerol. The minimal inhibitory concentration (MIC) is defined as the lowest concentration of the compound that prevents visible growth of bacteria using the microdilution method followed the EUCAST guidelines. Each compound was added to 96-well microplates in two-fold dilutions at concentrations from 3.125 to 100 μM in Mueller–Hinton broth. […] Bacterial culture was added into wells at a density of 5 × 10^5 CFU mL^−1, and plates were incubated at 37 °C for 18 h. As a positive control, an untreated bacterial culture was used, and a clear culture medium served as a negative control. The optical density at OD600 was measured using the SpectraMax i3 Multi-Mode Platform (Molecular Devices, San Jose, CA, USA). Ciprofloxacin hydrochloride (CIP, Sigma-Aldrich, Darmstadt, Germany) was used as a reference antimicrobial drug.

[2] = system: Klebsiella pneumoniae ATCC 13883; assay: MIC, two-fold microdilution (EUCAST), K. pneumoniae reference strain; assay type: cell-based; conditions: read-out: MIC (µM) Klebsiella pneumoniae ATCC 13883
Excerpt: as §1, §2

[3] = system: Pseudomonas aeruginosa NCTC 6749; assay: MIC, two-fold microdilution (EUCAST), P. aeruginosa reference strain; assay type: cell-based; conditions: read-out: MIC (µM) Pseudomonas aeruginosa NCTC 6749
Excerpt: as §1, §2

[4] = system: Escherichia coli NCTC 8196; assay: MIC, two-fold microdilution (EUCAST), E. coli reference strain; assay type: cell-based; conditions: read-out: MIC (µM) Escherichia coli NCTC 8196
Excerpt: as §1, §2

[5] = system: L929 cells; assay: cells; assay type: cell-based, murine; conditions: read-out: IC50 (µM) L929
Method: (§3) Considering our previous research and the literature reports on the antitumor activity of aziridine derivatives, aziridine phosphines (1–4) and aziridine phosphine oxides (5–9) were tested to investigate their potential anticancer activity. The in vitro effects on cell viability were assessed using the 3-(4,5-dimethylthiazol-2-yl)-2,5-diphenyltetrazolium bromide (MTT) assay on non-tumorigenic murine fibroblasts (L929) as well as two cancer cell lines: human cervical epithelioid carcinoma (HeLa) cells and endometrial adenocarcinoma (Ishikawa) cells.
(§4) Cell viability inhibition: The in vitro effects on cell viability were determined using the 3-(4,5-dimethylthiazol-2-yl)-2,5-diphenyltetrazolium bromide (MTT) assay on non-tumorigenic murine fibroblasts L929 (ATTC®—CCL-1) as well as two cancer cell lines: human cervical epithelioid carcinoma HeLa cells (ATTC®—CCL-2™) and endometrial adenocarcinoma Ishikawa cells (ECACC 99040201). Cells were cultured on 96-well microplates at a density of 1 × 10^4 cells/well following the international in Dulbecco’s Modified Eagle’s Medium (DMEM, Biowest) supplemented with 10% fetal bovine serum (FBS, Biowest, Nuaillé, France), 100 U/mL of penicillin, and 100 μg/mL of streptomycin (Biowest, Nuaillé, France). After overnight incubation at 37 °C and 5% CO2, the growth medium was removed and 100 μL of fresh media with two-fold dilutions of the tested compounds at concentrations of 3.125–100 μM were added. […] Untreated cells in medium were used as a positive control, while a clear culture medium served as a negative control.

[6] = system: HeLa cells; assay: cells; assay type: cell-based, human; conditions: for IC50: read-out: IC50 (µM) HeLa; for selectivity index (SI) HeLa: efficacy against HeLa versus normal fibroblasts L929, SI > 1.0 = greater efficacy against cancer cells
Method: as §3, §4

[7] = system: Ishikawa cells; assay: cells; assay type: cell-based, human; conditions: for IC50: read-out: IC50 (µM) Ishikawa; for selectivity index (SI) Ishikawa: efficacy against Ishikawa versus normal fibroblasts L929, SI > 1.0 = greater efficacy against cancer cells
Method: as §3, §4

[8] = system: clinical S. aureus strains; assay: MIC, microdilution, 12 clinical S. aureus strains; assay type: cell-based, Staphylococcus aureus; conditions: panel of 12 clinical isolates (naso-pharynx, ulcers/furuncles, bones), highest tested concentration 100 µM
Excerpt: as §1, §2

[9] = MTT, 24 h treatment, IC50 ± SD, three independent experiments
[10] = Staphylococcus aureus, ATCC6538, 18 h
[11] = Klebsiella pneumoniae, ATCC13883, 18 h
[12] = Pseudomonas aeruginosa, NCTC6749, 18 h
[13] = Escherichia coli, NCTC8196, 18 h
[14] = tested range 3.125–100 µM, 37 °C, 18 h

| Compound | IC50 ([5]; Mus musculus, L929, 24 h) [µM] | MIC [1, 10] [µM] | MIC [2, 11] [µM] | MIC [3, 12] [µM] | IC50 ([6]; Homo sapiens, 24 h) [µM] | selectivity index (SI) HeLa [6] | IC50 ([7]; Homo sapiens, Ishikawa, 24 h) [µM] | selectivity index (SI) Ishikawa [7] | MIC [4, 13] [µM] | further results |
| --- | --- | --- | --- | --- | --- | --- | --- | --- | --- | --- |
| O=C(O)c1cn(C2CC2)c2cc(N3CCNCC3)c(F)cc2c1=O [CIP, Ciprofloxacin hydrochloride, reference compound] | – | – | – | – | – | – | – | – | – | MIC ([1]; Staphylococcus aureus, ATCC6538, tested range 3.125–100 µM, 37 °C, 18 h): 1.6 µM; MIC ([2]; Klebsiella pneumoniae, ATCC13883, tested range 3.125–100 µM, 37 °C, 18 h): 0.2 µM; MIC ([3]; Pseudomonas aeruginosa, NCTC6749, tested range 3.125–100 µM, 37 °C, 18 h): 2.5 µM; MIC ([4]; Escherichia coli, NCTC8196, tested range 3.125–100 µM, 37 °C, 18 h): 0.04 µM |
| N.N.[Cl][Pt][Cl] [CisPt, cisplatin, reference compound] | – | – | – | – | – | – | – | – | – | IC50 [5, 9]: 26.2 ± 7.5 µM; IC50 [6, 9]: 10.4 ± 4.4 µM; IC50 [7, 9]: 17.3 ± 5.2 µM |
| CC(C)[C@@H]1CN1c1ccccc1P(c1ccccc1)c1ccccc1 [Compound 1] | 68.1 ± 11.2 | 50 (≈ 17.3 µg/mL) | > 100 | > 100 | > 100 | < 1 | 13.9 ± 7.1 | 4.9 | > 100 | – |
| CC(C)[C@H]1CN1c1ccccc1P(c1ccccc1)c1ccccc1 [Compound 2] | > 100 | 50 (≈ 17.3 µg/mL) | > 100 | > 100 | > 100 | – | 14.8 ± 6.5 | > 6.7 | > 100 | – |
| CC(C)C[C@H]1CN1c1ccccc1P(c1ccccc1)c1ccccc1 [Compound 3] | > 100 | 50 (≈ 18 µg/mL) | > 100 | > 100 | 30.3 ± 4.5 | > 3.3 | > 100 | – | > 100 | – |
| c1ccc([C@H]2CN2c2ccccc2P(c2ccccc2)c2ccccc2)cc1 [Compound 4] | 22 ± 3.4 | 50 (≈ 19 µg/mL) | > 100 | > 100 | 39.2 ± 6.7 | < 1 | > 100 | < 1 | > 100 | – |
| CC(C)[C@H]1CN1c1ccccc1P(=O)(c1ccccc1)c1ccccc1 [Compound 6] | 13.7 ± 3.1 | 50 (≈ 18.1 µg/mL) | > 100 | > 100 | 40.7 ± 11.1 | < 1 | 16.6 ± 2.5 | < 1 | > 100 | MIC ([8]; Staphylococcus aureus): 100 µM (≈ 36.1 µg/mL); MIC [8]: 100 µM (≈ 36.1 µg/mL) |
| O=P(c1ccccc1)(c1ccccc1)c1ccccc1N1C[C@@H]1c1ccccc1 [Compound 8] | 17 ± 4.4 | 50 (≈ 19.8 µg/mL) | > 100 | > 100 | 19.6 ± 3.2 | < 1 | 23.4 ± 7.6 | < 1 | > 100 | – |
| (2S)-2-diphenylphosphinoyl-2-phenylaziridine [Compound 9] | – | – | – | – | – | – | – | – | – | IC50 [5, 9]: > 100 µM; MIC [1, 14]: 50 µM; MIC [2, 14]: > 100 µM; MIC [3, 14]: > 100 µM; IC50 [6, 9]: 48.8 ± 12.3 µM; IC50 [7, 9]: > 100 µM; MIC [4, 14]: > 100 µM |
